We go through 24 compounds from patent publication US20240368139A1, “NOVEL MODULATORS OF EHMT1 AND EHMT2 AND THERAPEUTIC USE THEREOF” (Tango Therapeutics, Inc., priority 2021, published 2024).

One assay has as its system H3K9me2 in HCT116 cells. In words: HCT116 H3K9me2 in-cell western assay. Format: cell-based. The conditions noted are these: Homo sapiens, HCT-116, 72 h, HCT116 cells, 72 hours incubation; read-out: H3K9me2 ICW IC50. A digest of the protocol:
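HCT116 cells (2,000/well) were treated for 72 h at 37° C, 5% CO2, with ten two-fold dilutions from 10 μM in duplicate. After PFA fixation, cells were stained overnight at 4° C with anti-H3K9me2, then with an 800 CW secondary plus DRAQ5.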

The next assay addresses hERG potassium channels (Homo sapiens, UniProt Q12809). Kind of assay: In vitro hERG assay (SyncroPatch whole-cell recording). The following applies: hERG IC50, SyncroPatch, room temperature. In general terms: hERG is a cardiac potassium channel; its block is linked to QT prolongation.
For another assay, the target named is T1, human EHMT1 982-1266 (Homo sapiens, UniProt Q9H9B1).
T1 sequence (Q9H9B1 982-1266): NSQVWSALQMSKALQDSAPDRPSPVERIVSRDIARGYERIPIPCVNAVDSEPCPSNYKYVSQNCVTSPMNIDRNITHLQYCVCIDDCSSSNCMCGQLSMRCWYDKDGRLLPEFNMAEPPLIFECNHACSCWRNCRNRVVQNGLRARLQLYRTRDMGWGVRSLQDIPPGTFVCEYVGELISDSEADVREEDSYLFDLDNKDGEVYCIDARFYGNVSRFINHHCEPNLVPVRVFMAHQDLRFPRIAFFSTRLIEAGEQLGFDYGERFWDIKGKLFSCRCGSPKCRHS
Kind of assay: EHMT1 enzyme assay on histone peptide substrate (3H-SAM SPA). The following applies: EHMT1 IC50, recombinant human EHMT1 982-1266, histone peptide substrate.

A further assay deals with T2, human EHMT2 913-1193 (Homo sapiens, UniProt Q96KQ7).
T2 sequence (Q96KQ7 913-1193): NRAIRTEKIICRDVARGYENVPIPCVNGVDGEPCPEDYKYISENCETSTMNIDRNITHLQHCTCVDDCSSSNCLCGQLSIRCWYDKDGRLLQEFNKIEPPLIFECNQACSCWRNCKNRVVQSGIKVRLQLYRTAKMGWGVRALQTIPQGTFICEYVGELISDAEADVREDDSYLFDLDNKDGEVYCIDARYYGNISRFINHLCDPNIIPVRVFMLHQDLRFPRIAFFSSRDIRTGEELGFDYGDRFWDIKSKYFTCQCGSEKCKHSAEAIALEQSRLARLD
Kind of assay: EHMT2 enzyme assay on histone peptide substrate (3H-SAM SPA). The conditions noted are these: EHMT2 IC50, recombinant human EHMT2 913-1193, histone peptide substrate.

The IC50 is the midpoint of a concentration-inhibition curve.

hERG potassium channels, sequence (Q12809 whole entry): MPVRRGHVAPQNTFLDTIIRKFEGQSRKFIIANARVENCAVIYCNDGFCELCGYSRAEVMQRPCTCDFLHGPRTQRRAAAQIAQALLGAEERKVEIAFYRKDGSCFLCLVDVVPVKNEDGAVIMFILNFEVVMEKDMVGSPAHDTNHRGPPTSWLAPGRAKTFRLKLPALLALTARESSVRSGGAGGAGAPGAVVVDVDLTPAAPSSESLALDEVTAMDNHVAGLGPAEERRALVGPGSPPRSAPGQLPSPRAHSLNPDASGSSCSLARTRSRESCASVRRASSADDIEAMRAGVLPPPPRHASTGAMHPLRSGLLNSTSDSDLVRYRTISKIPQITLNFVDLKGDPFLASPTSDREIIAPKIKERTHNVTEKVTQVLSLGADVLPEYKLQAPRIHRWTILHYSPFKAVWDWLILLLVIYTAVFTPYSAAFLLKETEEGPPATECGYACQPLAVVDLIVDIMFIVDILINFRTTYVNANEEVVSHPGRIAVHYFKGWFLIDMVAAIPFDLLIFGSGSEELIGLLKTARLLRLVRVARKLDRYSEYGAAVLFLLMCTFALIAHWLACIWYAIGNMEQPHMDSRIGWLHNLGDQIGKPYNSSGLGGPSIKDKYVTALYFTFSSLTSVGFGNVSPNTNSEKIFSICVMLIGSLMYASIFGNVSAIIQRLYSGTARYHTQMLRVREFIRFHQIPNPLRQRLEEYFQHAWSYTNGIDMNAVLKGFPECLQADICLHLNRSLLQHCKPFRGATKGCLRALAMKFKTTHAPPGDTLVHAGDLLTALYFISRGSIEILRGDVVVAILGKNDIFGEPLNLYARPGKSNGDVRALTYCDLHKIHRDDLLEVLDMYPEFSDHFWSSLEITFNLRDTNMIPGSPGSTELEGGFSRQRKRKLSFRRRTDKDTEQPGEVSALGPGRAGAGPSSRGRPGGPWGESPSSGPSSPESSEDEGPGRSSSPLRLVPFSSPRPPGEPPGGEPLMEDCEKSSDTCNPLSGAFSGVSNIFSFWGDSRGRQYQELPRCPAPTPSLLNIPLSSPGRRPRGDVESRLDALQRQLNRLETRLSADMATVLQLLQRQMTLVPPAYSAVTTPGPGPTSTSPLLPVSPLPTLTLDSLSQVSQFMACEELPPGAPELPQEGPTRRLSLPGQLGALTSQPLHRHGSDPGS
Description for hERG potassium channels: CHO cells stably expressing hERG potassium channels from Sophion Biosciences were used for this test. The cells were cultured in a humidified and air-controlled (5% CO2) incubator at 37° C.
The CHO hERG Culture Medium consisted of 500 mL Ham's F12 (Invitrogen), 50 mL FBS (HyClone), 1 mL G418/Geneticin (Invitrogen, and 1 mL Hygromycin B (Invitrogen)
The CHO cells which were at least two days after plating and more than 75% confluent would be used for experiments. Before testing, cells were harvested using TrypLE and resuspended in the physiological solution at the room temperature.
For the electrophysiological recordings the following solutions were used (Table 5). The physiological solution and external solution were prepared at least one month. The intracellular solution was prepared in batches aliquoted, and stored at 4° C. until used.
Test compounds were dissolved in 100% DMSO to obtain stock solutions for different test concentrations. Then the stock solutions were further diluted into external solution to achieve final concentrations for testing. Visual check for precipitation was conducted before testing. Final DMSO concentration in external solution was not more than 0.30% for the test compounds.
Voltage command protocol: From this holding potential of −80 mV, the voltage was first stepped to −50 mV for 80 ms for leak subtraction, and then stepped to +20 mV for 4800 ms to open hERG channels. After that, the voltage was stepped back down to −50 mV for 5000 ms, causing a “rebound” or tail current, which was measured and collected for data analysis. Finally, the voltage was stepped back to the holding potential (−80 mV, 1000 ms). This voltage command protocol was repeated every 20000 msec. This command protocol was performed continuously during the test (vehicle control and test compound).
hERG SyncroPatch assay was conducted at room temperature. The Setup, Prime Chip, Catch and Seal Cells, Amplifier Settings, Voltage and Application Protocols were established with Biomek Software (Nanion). One addition of 40 μL of the vehicle was applied, followed by 300s for a baseline period. Then the doses of the compounds were added with 40 μL. The exposure of test compound at each concentration was no less than 300s. […] Five concentrations (0.30 μM, 1.00 μM, 3.00 μM, 10.00 μM and 30.00 μM) were tested for each compound. Minimum 2 replicates per concentration were obtained.
Within each well recording, percent of control values were calculated for each test compound concentration current response based on peak current in presence of reference control (current response/peak current)×100%. The Dose-Response curves were fit to the standard Hill equation as shown below:
Where X is the logarithm of concentration, Ipost cpd/Ipre cpa is the normalized peak current amplitude, Top is 1 and Bottom is equal to 0.
Curve-fitting and IC50 calculations were performed by GraphPad Prism 5.0.

With `CNc1cc(C)nc(Nc2cc3c(c(C4=CCNCCC4)c2C)OCC3)n1` [Compound 188, N4,6-dimethyl-N2-[6-methyl-7-(2,3,4,7-tetrahydro-1H-azepin-5-yl)-2,3-dihydrobenzofuran-5-yl]pyrimidine-2,4-diamine], the IC50 is under 100 nM with H3K9me2 in HCT116 cells, over 10000 nM on hERG potassium channels, under 100 nM on human EHMT1 982-1266 and under 100 nM at human EHMT2 913-1193.

On to `CNc1cc(C)nc(Nc2cc3c(c(C4=CCNCCC4)c2Cl)OCC3)n1` [Compound 189, N2-[6-chloro-7-(2,3,4,7-tetrahydro-1H-azepin-5-yl)-2,3-dihydrobenzofuran-5-yl]-N4,6-dimethyl-pyrimidine-2,4-diamine], for which the IC50 in the assay on H3K9me2 in HCT116 cells is under 100 nM; on hERG potassium channels it was over 10000 nM; at human EHMT1 982-1266 it was under 100 nM; on human EHMT2 913-1193, under 100 nM.

For `CNc1cc(C)nc(Nc2cc3c(c(C4=CCN(C)CCC4)c2F)OCCC3)n1` [Compound 190], the IC50 is under 100 nM in the assay with H3K9me2 in HCT116 cells, 5000 to 10000 nM against hERG potassium channels, under 100 nM on human EHMT1 982-1266 and under 100 nM on human EHMT2 913-1193.

Turning to `CNc1cc(C)nc(Nc2cc3c(c(C4=CCNCCC4)c2F)OCCO3)n1` [Compound 191], the IC50 in the assay with H3K9me2 in HCT116 cells is under 100 nM; on hERG potassium channels, 2000 to 5000 nM; at human EHMT1 982-1266, under 100 nM; on human EHMT2 913-1193 it was under 100 nM.

`CNc1cc(C)nc(Nc2cc3c(c(C4=CCNCCC4)c2F)OCCC3)n1` [Compound 193, N2-[7-fluoro-8-(2,3,4,7-tetrahydro-1H-azepin-5-yl)chroman-6-yl]-N4,6-dimethyl-pyrimidine-2,4-diamine]: the IC50 was under 100 nM in the assay on H3K9me2 in HCT116 cells, 5000 to 10000 nM on hERG potassium channels, under 100 nM at human EHMT1 982-1266 and under 100 nM on human EHMT2 913-1193.

With `CCN1CC=C(c2c(F)c(Nc3nc(C)cc(NC)n3)cc3c2OCC3)CCC1` [Compound 201], the IC50 in the assay with H3K9me2 in HCT116 cells is under 100 nM; against hERG potassium channels, 5000 to 10000 nM; on human EHMT1 982-1266, under 100 nM; on human EHMT2 913-1193, under 100 nM.

On to `COCCNc1cc(C)nc(Nc2cc3c(c(C4=CCNCCC4)c2F)OCC3)n1` [Compound 289, N2-[6-fluoro-7-(2,3,4,7-tetrahydro-1H-azepin-5-yl)-2,3-dihydrobenzofuran-5-yl]-N4-(2-methoxyethyl)-6-methyl-pyrimidine-2,4-diamine], for which the IC50 with H3K9me2 in HCT116 cells was under 100 nM; against hERG potassium channels, over 10000 nM; at human EHMT1 982-1266 it was under 100 nM; on human EHMT2 913-1193, under 100 nM.

For `COCCNc1cc(C)nc(Nc2cc3c(c(C4=CCN(C)CCC4)c2F)OCC3)n1` [Compound 290], the IC50 in the assay with H3K9me2 in HCT116 cells is under 100 nM; on hERG potassium channels, over 10000 nM; at human EHMT1 982-1266 it was under 100 nM; at human EHMT2 913-1193 it was 100 to 500 nM.

Turning to `Cc1cc(NCC(F)(F)F)nc(Nc2cc3c(c(C4=CCNCCC4)c2)OCC3)n1` [Compound 322], the IC50 in the assay on H3K9me2 in HCT116 cells was 100 to 500 nM; on hERG potassium channels, 2000 to 5000 nM; at human EHMT1 982-1266, under 100 nM; on human EHMT2 913-1193, 100 to 500 nM.

With `CNc1cc(C(C)C)nc(Nc2cc3c(c(C4=CCN(C)CCC4)c2)OCC3)n1` [Compound 323], the IC50 lay within 100 to 500 nM in the assay with H3K9me2 in HCT116 cells, 2000 to 5000 nM against hERG potassium channels, 100 to 500 nM at human EHMT1 982-1266 and 100 to 500 nM on human EHMT2 913-1193.

`COCCNc1cc(C)nc(Nc2cc3c(c(C4=CCN(C)CCC4)c2)OCC3)n1` [Compound 324]: the IC50 was 100 to 500 nM with H3K9me2 in HCT116 cells, 5000 to 10000 nM on hERG potassium channels, 100 to 500 nM on human EHMT1 982-1266 and 100 to 500 nM at human EHMT2 913-1193.

`Cc1cc(NC2CCC2)nc(Nc2cc3c(c(C4=CCNCCC4)c2)OCC3)n1` [Compound 325]: the IC50 with H3K9me2 in HCT116 cells is 100 to 500 nM; against hERG potassium channels, 2000 to 5000 nM; on human EHMT1 982-1266 it was under 100 nM; on human EHMT2 913-1193, 100 to 500 nM.

Turning to `CNc1cc(C(C)C)nc(Nc2cc3c(c(C4=CCNCCC4)c2)OCC3)n1` [Compound 326], the IC50 is under 100 nM with H3K9me2 in HCT116 cells, 2000 to 5000 nM against hERG potassium channels, under 100 nM on human EHMT1 982-1266 and under 100 nM on human EHMT2 913-1193.

As to `COCCNc1cc(C)nc(Nc2cc3c(c(C4=CCNCCC4)c2)OCC3)n1` [Compound 327], the IC50 in the assay on H3K9me2 in HCT116 cells was under 100 nM; at hERG potassium channels, over 10000 nM; on human EHMT1 982-1266, under 100 nM; on human EHMT2 913-1193, under 100 nM.

For `CNc1cc(C)nc(Nc2cc3c(c(C4=CCNCCC4)c2F)OCC3)c1` [Compound 328], the 50% inhibitory concentration (IC50) with H3K9me2 in HCT116 cells was under 100 nM; at hERG potassium channels, over 10000 nM; on human EHMT1 982-1266, under 100 nM; on human EHMT2 913-1193, under 100 nM.

For `CNc1cc(C)nc(Nc2cc3c(c(C4C[C@@H]5CN(C)C[C@@H]5C4)c2)OCCO3)n1` (stereo partly drawn) [Compound 329], the IC50 in the assay with H3K9me2 in HCT116 cells was 100 to 500 nM; at hERG potassium channels, over 10000 nM; at human EHMT1 982-1266 it was 100 to 500 nM; at human EHMT2 913-1193 it was 500 to 2000 nM.

For `CNc1ccnc(Nc2cc3c(c(C4=CCNCCC4)c2)OCC3)n1` [Compound 330], the IC50 in the assay on H3K9me2 in HCT116 cells is under 100 nM; at hERG potassium channels it was over 10000 nM; on human EHMT1 982-1266, under 100 nM; at human EHMT2 913-1193 it was under 100 nM.

On to `CNc1ccnc(Nc2cc3c(c(C4=CCN(C)CCC4)c2)OCC3)n1` [Compound 331], for which the IC50 with H3K9me2 in HCT116 cells is under 100 nM; against hERG potassium channels, over 10000 nM; on human EHMT1 982-1266, under 100 nM; at human EHMT2 913-1193 it was 100 to 500 nM.

As to `CNc1cc(C)nc(Nc2cc3c(c(C4=CCNCCC4)c2)CCO3)n1` [Compound 332], the IC50 in the assay on H3K9me2 in HCT116 cells was 100 to 500 nM; against hERG potassium channels, over 10000 nM; at human EHMT1 982-1266, 100 to 500 nM; at human EHMT2 913-1193, 100 to 500 nM.

Turning to `CNc1cc(C)nc(Nc2cc3c(c(C4C[C@H]5CNC[C@H]5C4)c2)OCCO3)n1` (stereo partly drawn) [Compound 334], the IC50 in the assay with H3K9me2 in HCT116 cells is 100 to 500 nM; against hERG potassium channels, over 10000 nM; on human EHMT1 982-1266, 100 to 500 nM; at human EHMT2 913-1193, 500 to 2000 nM.

For `CNc1ccnc(Nc2cc3c(c(C4=CCN(C)CCC4)c2)OCO3)n1` [Compound 335], the IC50 is 100 to 500 nM in the assay with H3K9me2 in HCT116 cells, 5000 to 10000 nM at hERG potassium channels, 100 to 500 nM on human EHMT1 982-1266 and 100 to 500 nM on human EHMT2 913-1193.

Consider `CNc1ccnc(Nc2cc3c(c(C4=CCNCCC4)c2)OCO3)n1` [Compound 336], for which the IC50 with H3K9me2 in HCT116 cells is under 100 nM; on hERG potassium channels it was 5000 to 10000 nM; at human EHMT1 982-1266, under 100 nM; on human EHMT2 913-1193, under 100 nM.

With `CNc1cc(C)nc(Nc2cc3c(c(C4CCCNCC4)c2)OCCC3)n1` (stereo not drawn) [Compound 341], the IC50 in the assay on H3K9me2 in HCT116 cells was 100 to 500 nM; at hERG potassium channels it was over 10000 nM; on human EHMT1 982-1266 it was under 100 nM; on human EHMT2 913-1193, 100 to 500 nM.

In the case of `CNc1cc(C)nc(Nc2cc3c(c(C4CCCNCC4)c2)OCCO3)n1` (stereo not drawn) [Compound 348], the IC50 in the assay with H3K9me2 in HCT116 cells is 100 to 500 nM; on hERG potassium channels it was over 10000 nM; at human EHMT1 982-1266 it was 100 to 500 nM; at human EHMT2 913-1193, 100 to 500 nM.
